In patent publication US20220195059A1, “Rank Pathway Inhibitors in Combination with CDK Inhibitors” (INSTITUTO DE MEDICINA MOLECULAR JOÃO LOBO ANTUNES, priority 2019, published 2022):

Tests used:
[1] = system: MDA-MB-231 TNBC cells; test: Alamar blue viability assay, MDA-MB-231 TNBC cells with or without RANK knockdown; type: cell-based, human; conditions: 7 days
Description: For lentiviral transduction, MDA-MB-231GFP+Luc+ cells were seeded in 24-well plates, at a density of 4×10^4 cells/well. 24 hours after seeding, medium was replaced by fresh medium containing 8 μg/ml Polybrene (Sigma) and RANK shRNA (h) lentiviral particles (15-20 μl/well; sc-42960-V, Santa Cruz) or control shRNA lentiviral particles (15-20 μl/well; sc-108080, Santa Cruz). Cells were selected with 0.5 μg/mL Puromycin dihydrochloride (Sigma) starting three days after transduction.
Cells were seeded in 96 well-plates (2-5×10^4 cells/mL), with or without paclitaxel (Y0000698, Sigma), doxorubicin hydrochloride (D2975000, Sigma), palbociclib (PD 0332991 isethionate, PZ0199, Sigma), ribociclib (LEE011 succinate, SC-488174, Santa Cruz), abemaciclib mesylate (LY2835219, S7158, Selleckchem), fulvestrant (S1191, Selleckchem), everolimus (#73122, StemCell Technologies), full length human OPG (SRP3132, Sigma), and OPG-Fc (Amgen). Medium was replaced every 2 days. After 7 days, 1:10 Alamar blue (Invitrogen) was added to each well and fluorescence was measured 2 hours after incubation (excitation 560 nm; emission 590 nm) in an Infinite M200 microplate reader (Tecan).
RANK KD clones were first generated for use in sensitivity assays. Briefly, MCF-7GFP+Luc+ cells were seeded in multi-well plates and then exposed to fresh medium comprising RANK shRNA (h) lentiviral particles or control shRNA lentiviral particles. The transduced cells were selected using Puromycin dihydrochloride starting three days post-transduction.

[2] = system: cyclin D1, CDK4, CDK6, Cyclin E and CDK2 expression in RANK OE (MCF-7 OE) cells; test: Western blot of proteins involved in cyclin/CDKs complexes; type: cell-based, human; conditions: 0, 24 or 72 hours
Description: Membranes were blocked for 1 h at room temperature (RT) in 5% Non-Fat Dry Milk (NFDM) in PBS-0.1% Tween (PBST) for β-actin; or in 5% bovine serum albumin (BSA) (Santa Cruz) for other antibodies. […] Proteins were detected using a Novex® ECL HRP chemiluminescent substrate reagent kit (Invitrogen) according to the manufacturer's instructions, and x-ray films (Fujifilm) developed in a Curix 60 processor (AGFA), or the Amersham™ Imager 680 (GE Healthcare Life Sciences). Normalized protein expression was calculated using FIJI software and band densitometry analysis.
Briefly, expression of cyclin D1, CDK4, CDK6, Cyclin E and CDK2 were analyzed by Western blotting cell lysates of RANK OE (MDF-7 OE) cells exposed to palbociclib for 0 hours, 24 hours or 72 hours, and compared to the corresponding expression levels in the parental counterpart cells (expressing low levels of RANK; MCF-7 cells). […]

`CC(=O)c1c(C)c2cnc(Nc3ccc(N4CCNCC4)cn3)nc2n(C2CCCC2)c1=O` [palbociclib] was tested, and the “sensitivity to CDK4/6 inhibitor (cell viability)” value ([1]; MDA-231 cells and MDA-231 shControl cells) was “resistance”, the “sensitivity to CDK4/6 inhibitor (cell viability)” value ([1]; TNBC RANK KD cells (MDA-231 shRANK) vs RANK expressing cells) was “restored sensitivity” and the “CyclinD1, CDK4 and CDK2 expression upon exposure to CDK4/6 inhibitor” value [2] was “increased”.
